The results in this text go back to patent US20240208952A1, “THIOPHENE GLP-1 RECEPTOR AGONIST AND USE THEREOF” (priority 2021, published 2024).

The target of data set [1] is T1, Human GLP-1R (Homo sapiens, UniProt P43220).
T1 construct: expressed in transfected cells
In words: GLP-1R agonist activity, HTRF cAMP level test in 293A GFP-GLP-1R cells. Type of data set: cell-based. How it is done: GLP-1R-mediated agonist activity was determined by cell-based assays using a homogeneous time-resolved fluorescence (i.e., HTRF)-based cAMP detection kit, which measures the level of cAMP in cells. The method was a competitive immunoassay. It enabled direct pharmacological characterization of compounds acting on Gs-coupled receptors in adherent or suspending cells.
The standard curve of native cAMP or unlabeled cAMP produced by cells competed with d2-labeled cAMP red receptors to bind monoclonal anti-cAMP Eu3+ cryptate donors, and the specific signal was inversely proportional to the concentration of cAMP in standard or tested samples.
Human GLP-1R encoding sequence (NCBI reference sequence NP_002053.3) was subcloned into pEGFP-N1 (tsingke), and the cell line stably expressing the receptor was isolated.
The final DMSO concentration in the buffer mixture was determined to be 1% o.
Cells were collected from a T25 tissue culture flask and centrifuged at room temperature at 1000 rpm for 5 minutes. The cell precipitates were then re-suspended in 1 mL of the stimulating buffer. 20 μL sample of cell suspension was counted on a counter STAR IC 1000 to determine the cell viability and the cell count per mL. The remaining cell suspension was then regulated with the stimulating buffer to deliver 2000 living cells per well using a multi-channel pipette. 5 μL of the cell suspension was added to each well of the plate which already contained the compound. The plate was sealed and incubated at 37° C. with 5% CO2 for 30 minutes.
After 30 minutes of incubation, 5 μL of d2-labeled cAMP and 5 μL of anti-cAMP cryptate (both 1:20 diluted in the cell lysis buffer) were added to each well of the plate. The plate was then incubated at room temperature for 60 minutes, and the changes of HTRF signal were read with Tecan Spark reader: […] at 340 nm (excitation)/at 615 nm and 665 nm (emission). Raw data were converted into nM cAMP by interpolation from the cAMP standard curve, and the effect in percentage was determined relative to the saturated concentration of the complete agonist GLP-17˜37 (400 nM) contained in each plate. Determination of EC50 was performed based on the agonist dose-response curve, which was analyzed using a four-parameter logical dose-response equation with a curve fitting program.
The test data presented the results in the form of a geometric mean (EC50s) based on the number of repetition times.

Data set [2] addresses hERG potassium channel (Homo sapiens, UniProt Q12809). The data set can be described thus: Inhibition of hERG potassium channels, whole-cell patch clamp in HEK-hERG cells. Particulars: HEK293 cells stably expressing hERG (HEK-hERG). How it is done: The cell suspension was added to a small petri dish and placed on an inverted microscope stage.
Such a set of pulse programming was repeated every 15 seconds throughout the experiment.
(In general: hERG is a cardiac potassium channel; its block is linked to QT prolongation.)

The nature of data set [3]: Metabolic stability in (human) liver microsomes. As to conditions: pH 7.4, 0.5 mg/mL microsomal protein, 37° C., 0-45 minutes, LC-MS/MS, read-out: LMS(t1/2 min). It counts as in vitro ADME. The method, then: 1. Experimental design: test concentration: […]; control compound: testosterone; culture conditions: cultured at 37° C. for 0, 5, 15, 30, 45 minutes; method of determination: LC-MS/MS; calculation method: T1/2=0.693/K (K is the rate constant of the ln [concentration] vs. incubation time profile), Clint=(0.693/T1/2)×(1/(microsomal protein concentration (0.5 mg/mL)))×scaling factor.
2. Experimental method: 1. preheating 0.1 M K-buffer, […], pH=7.4; 2. test solutions of test compound and reference compound, 500 μM additive solution: 5 μL of 10 mM stock solution was added to 95 μL can; […] and 18.75 μL of 20 Mg/mL liver microsome were added to 479.75 μL of K/Mg buffer; 3. 3×NADPH stock solution (6 mM, 5 mg/mL) was prepared by dissolving NADPH in the buffer solution; 4. 30 μL of 1.5 μM additive solution containing 0.75 mg/mL microsomal solution was distributed to the plates designated for different time points (0, 5, 15, 30, 45 minutes); 5. at 0 min, 150 μL of ACN containing IS was added to the wells of the plate, followed by addition of 15 μL of NADPH stock solution (6 mM, step 3); 6. all other plates were pre-incubated at 37° C. for 5 minutes; 7. adding 15 μL of NADPH stock solution to the plate to start the reaction and timing; 8. 150 μL of ACN containing IS was added to the wells of the corresponding plates to stop the reaction at 5 min, 15 min, 30 min and 45 min, respectively; 9. after quenching, the plates were shaken on a shaker for 10 minutes (600 rpm/min) and then centrifuged at 6000 rpm for 15 minutes; 10. 80 μL of supernatant was transferred from each well to a 96-well sample plate containing 140 μL water for LC/MS analysis.
Detection method: LC-MS/MS-11 (8050), internal standard: tolbutamide; MS conditions: positive ion ESI for testosterone and test compound, and negative ion ESI for tolbutamide; Mobile phases: mobile phase A is 0.1% FA in water, and mobile phase B is 0.1% FA in ACN; Column and specification: ACQUITY UPLC HSS T3 1.8 um 2.1*50 mm.

T1 sequence (P43220 24-463): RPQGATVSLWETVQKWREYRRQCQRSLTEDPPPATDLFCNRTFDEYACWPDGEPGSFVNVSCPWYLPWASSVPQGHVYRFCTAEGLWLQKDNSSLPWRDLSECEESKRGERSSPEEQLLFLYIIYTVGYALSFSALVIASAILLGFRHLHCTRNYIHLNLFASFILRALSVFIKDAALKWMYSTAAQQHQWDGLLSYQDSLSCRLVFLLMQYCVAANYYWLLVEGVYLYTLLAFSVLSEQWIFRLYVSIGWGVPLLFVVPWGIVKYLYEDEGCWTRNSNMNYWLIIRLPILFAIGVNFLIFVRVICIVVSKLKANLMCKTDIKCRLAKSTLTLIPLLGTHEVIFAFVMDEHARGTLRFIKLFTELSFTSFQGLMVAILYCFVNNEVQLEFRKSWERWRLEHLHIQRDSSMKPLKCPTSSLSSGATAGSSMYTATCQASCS
hERG potassium channel, sequence (Q12809 whole entry): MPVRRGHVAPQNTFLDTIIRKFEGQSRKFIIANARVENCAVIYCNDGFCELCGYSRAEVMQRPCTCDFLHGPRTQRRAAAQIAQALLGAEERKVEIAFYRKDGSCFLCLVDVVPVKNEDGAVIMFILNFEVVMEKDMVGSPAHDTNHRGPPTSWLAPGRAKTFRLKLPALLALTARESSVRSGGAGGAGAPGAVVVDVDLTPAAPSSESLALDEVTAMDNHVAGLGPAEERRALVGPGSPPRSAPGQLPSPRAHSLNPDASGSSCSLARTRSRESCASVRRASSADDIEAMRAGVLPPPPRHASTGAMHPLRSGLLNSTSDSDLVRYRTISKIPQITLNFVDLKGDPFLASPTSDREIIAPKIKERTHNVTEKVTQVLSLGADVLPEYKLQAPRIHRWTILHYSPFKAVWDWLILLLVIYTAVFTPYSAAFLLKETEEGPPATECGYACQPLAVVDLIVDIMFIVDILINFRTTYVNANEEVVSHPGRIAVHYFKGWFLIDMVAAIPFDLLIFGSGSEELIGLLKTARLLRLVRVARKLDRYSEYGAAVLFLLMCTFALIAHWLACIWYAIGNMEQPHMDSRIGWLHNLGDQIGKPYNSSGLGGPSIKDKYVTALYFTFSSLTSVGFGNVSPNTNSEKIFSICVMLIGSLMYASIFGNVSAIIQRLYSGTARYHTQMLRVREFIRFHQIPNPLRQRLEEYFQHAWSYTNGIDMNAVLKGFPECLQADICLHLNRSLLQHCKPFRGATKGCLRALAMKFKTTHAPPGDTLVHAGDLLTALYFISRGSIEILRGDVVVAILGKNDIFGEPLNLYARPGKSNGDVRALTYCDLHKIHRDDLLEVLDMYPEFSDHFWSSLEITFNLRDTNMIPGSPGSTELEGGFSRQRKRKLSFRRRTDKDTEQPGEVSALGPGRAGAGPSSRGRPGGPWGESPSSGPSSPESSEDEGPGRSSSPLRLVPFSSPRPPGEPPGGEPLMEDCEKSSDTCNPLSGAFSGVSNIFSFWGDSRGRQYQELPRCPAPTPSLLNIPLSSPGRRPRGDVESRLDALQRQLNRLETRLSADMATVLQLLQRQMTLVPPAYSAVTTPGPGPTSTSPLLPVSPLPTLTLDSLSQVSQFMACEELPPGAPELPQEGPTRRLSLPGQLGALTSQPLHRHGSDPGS

Take `N#Cc1sc(COc2cccc(C3CCN(Cc4nc5ccc(C(=O)O)cc5n4C[C@@H]4CCO4)CC3)n2)cc1Cl` [Compound 8, (S)-2-((4-(6-((4-chloro-5-cyanothiophen-2-yl)methoxy)pyridin-2-yl)piperidin-1-yl)methyl)-1-(oxetan-2-ylmethyl)-1H-benzo[d]imidazole-6-carboxylic acid]: the response in data set [1] was half-maximal at 50 pM (EC50). On to `CC(=O)c1ccc(COc2cccc(C3CCN(Cc4nc5ccc(C(=O)O)cc5n4C[C@@H]4CCO4)CC3)n2)s1` [Compound 1, (S)-2-((4-(6-((5-acetylthiophen-2-yl)methoxy)pyridin-2-yl)piperidin-1-yl)methyl)-1-(oxetan-2-ylmethyl)-1H-benzo[d]imidazole-6-carboxylic acid], for which the EC50 (usually the midpoint of the concentration-response curve) in data set [1] is 4670 pM. In addition, in data set [2], the inhibition (usually the change of the read-out against control, counted positive when it falls) at 1 µM is 9.82% and the inhibition at 10 µM was determined as 53.8%. The half-life at 1 μM in data set [3] came out at 115 min. In data set [1], `CC(=O)c1cc(Cl)c(COc2cccc(C3CCN(Cc4nc5ccc(C(=O)O)cc5n4C[C@@H]4CCO4)CC3)n2)s1` [Compound 5, (S)-2-((4-(6-((5-acetyl-3-chlorothien-2-yl)methoxy)pyridin-2-yl)piperidin-1-yl)methyl)-1-(oxetan-2-ylmethyl)-1H-benzo[d]imidazole-6-carboxylic acid] returned an EC50 of 560 pM. The half-life at 1 μM in data set [3] worked out at 37.3 min. `O=C(O)c1ccc2nc(CN3CCC(c4cccc(OCc5ccc(-c6cncnc6)s5)n4)CC3)n(C[C@@H]3CCO3)c2c1` [Compound 13]: the response in data set [1] was half-maximal at 470 pM (EC50). On the same count and under the same terms, for `Cc1cc(C#N)sc1COc1cccc(C2CCN(Cc3nc4ccc(C(=O)O)cc4n3C[C@@H]3CCO3)CC2)n1` [Compound 11, (S)-2-((4-(6-((5-cyano-3-methylthiophen-2-yl)methoxy)pyridin-2-yl)piperidin-1-yl)methyl)-1-(oxetan-2-ylmethyl)-1H-benzo[d]imidazole-6-carboxylic acid] the value was 100 pM. On to `N#Cc1ccc(COc2ccc3c(n2)C2=C(COC3)CN(Cc3nc4ccc(C(=O)O)cc4n3C[C@@H]3CCO3)CC2)s1` [Compound 12, (S)-2-((2-((5-cyanothiophen-2-yl)methoxy)-5,8,10,11-tetrahydro-oxepino[4,3-b:6,5-c′]dipyridin-9(7H)-yl)methyl)-1-(oxetan-2-ylmethyl)-1H-benzo[d]imidazole-6-carboxylic acid], for which a half-maximal response in data set [1] (EC50) required 500 pM. Besides, in data set [3], the half-life at 1 μM turned out to be 59.8 min. `N#Cc1ccc(COc2cccc(C3CCN(Cc4nc5ccc(C(=O)O)cc5n4C[C@@H]4CCO4)CC3)n2)s1` [Compound 4, (S)-2-((4-(6-((5-Cyanothiophen-2-yl)methoxy)pyridin-2-yl)piperidin-1-yl)methyl)-1-(oxetan-2-ylmethyl)-1H-benzo[d]imidazole-6-carboxylic acid] returned a concentration for a half-maximal effect (EC50) in data set [1] of 1000 pM. For the same compound, in data set [2], the inhibition at 1 µM was determined as 14.2% and the inhibition at 10 µM amounted to 72.2%. Besides, in data set [3], the half-life at 1 μM was found to be 132 min. For the compound `N#Cc1cc(Cl)c(COc2cccc(C3CCN(Cc4nc5ccc(C(=O)O)cc5n4C[C@@H]4CCO4)CC3)n2)s1` [Compound 7, (S)-2-((4-(6-((3-chloro-5-cyanothiophen-2-yl)methoxy)pyridin-2-yl)piperidin-1-yl)methyl)-1-(oxetan-2-ylmethyl)-1H-benzo[d]imidazole-6-carboxylic acid], in data set [1], the EC50 came to 20 pM. In data set [3], the half-life at 1 μM was determined as 21.2 min. With `O=C(O)c1ccc2nc(CN3CCC(c4cccc(OCc5ccc(C(=O)C6CC6)s5)n4)CC3)n(C[C@@H]3CCO3)c2c1` [Compound 6, (S)-2-((4-(6-((5-(cyclopropanecarbonyl)thiophen-2-yl)methoxy)pyridin-2-yl)piperidin-1-yl)methyl)-1-(oxetan-2-ylmethyl)-1H-benzo[d]imidazole-6-carboxylic acid], in data set [1], the 50% effective concentration (EC50) is 30 pM. The same measure, in the same setting: under `O=C(O)c1ccc2nc(CN3CCC(c4cccc(OCc5ccc(C(F)(F)F)s5)n4)CC3)n(C[C@@H]3CCO3)c2c1` [Compound 9, (S)-1-(oxetan-2-ylmethyl)-2-((4-(6-((5-(trifluoromethyl)thiophen-2-yl)methoxy)pyridin-2-yl)piperidin-1-yl)methyl)-1H-benzo[d]imidazole-6-carboxylic acid] stands 80 pM. Take `O=C(O)c1ccc2nc(CN3CCC(c4cccc(OCc5cc6ccncc6s5)n4)CC3)n(C[C@@H]3CCO3)c2c1` [Compound 10, 1-(oxetan-2-ylmethyl)-2-((4-(6-(thieno[2,3-c]pyridin-2-ylmethoxy)pyridin-2-yl)piperidin-1-yl)methyl)-1H-benzo[d]imidazole-6-carboxylic acid]: the EC50 in data set [1] turned out to be 50 pM. For the same compound, the half-life at 1 μM in data set [3] was 22.5 min.

In turn, `CC(=O)c1csc(COc2cccc(C3CCN(Cc4nc5ccc(C(=O)O)cc5n4C[C@@H]4CCO4)CC3)n2)c1` [Compound 2, (S)-2-((4-(6-((4-acetylthiophen-2-yl)methoxy)pyridin-2-yl)piperidin-1-yl)methyl)-1-(oxetan-2-ylmethyl)-1H-benzo[d]imidazole-6-carboxylic acid] showed a 50% effective concentration (EC50) in data set [1] of 88800 pM. On the same count and under the same terms, for `CC(=O)c1cc(COc2cccc(C3CCN(Cc4nc5ccc(C(=O)O)cc5n4C[C@@H]4CCO4)CC3)n2)cs1` [Compound 3, (S)-2-((4-(6-((5-acetylthiophen-3-yl)methoxy)pyridin-2-yl)piperidin-1-yl)methyl)-1-(oxetan-2-ylmethyl)-1H-benzo[d]imidazole-6-carboxylic acid] the value was 121000 pM.
